The results in this text go back to patent publication US20240350647A1, “STING SENSITIZING AGENTS” (STipe Therapeutics ApS, priority 2023, published 2024).

Where a SMILES comes first, the peptide text is derived from it. Bridges are numbered along the chain shown (N, C = ends). Where no end group is shown, it is not given here. [ ]: non-standard residue; d: D form. The star is where a group is joined. C16 diacid = O=C(O)CCCCCCCCCCCCCCC(=O)*; AEEA = NCCOCCOCC(=O)O

The subject of series [1] is IFN-β. Description: Stimulation and sensitization assay in THP1 cells, IFN-β release (ELISA). In kind it is cell-based, human. As to conditions: with 2 μM Agent 1. The procedure: THP1 cells were purchased from ATCC (TIB-202™) and cultured in RPMI 1640 supplemented with 10% FBS and 1% Penicillin/Streptomycin (P/S) at 37° C. and 5% CO2. Passaging of THP1 cells was kept below 20 passages.
ADU-S100 was dissolved according to manufacturer's protocol (tlrl-nacda2r) to 0.5 mg/mL in LAL and subsequently diluted in R10. diABZI Compound 3 was diluted from a 1 mM stock in 100% DMSO into R10. Agent 1 was dissolved to a stock solution of 1250 μM in 50% DMSO, 25 mM HEPES. Concentration of dissolved Agent 1 was determined by A280 measurement using Synergy HI (Biotek Gen5 SW). Subsequently, Agent 1 dilutions were prepared in RPMI 1640, 10% FBS, 1% P/S (R10).
Concentrations of CXCL10 and IFN-β in the collected supernatants were determined by Duo-Set ELISA from R&D. Absorbance measurements at 450/570 nm and quantification were done using Synergy HI plate reader (Biotek Gen5 SW), Microsoft Excel and GraphPad prism v. 9.3.1.
Data analysis and statistical analysis were done using GraphPad prism 9.3.1. […]
Dip: is the plateau in the middle of the curve, corresponding to EMax, same unite as y-axis. The EMax determined here are not derived from this regression, due to the limitations using bell shaped dose response. Instead, EMax-values were determined as the maximum response at any given STING agonist concentration for both IFN-β and CXCL10 from all experiments. […]
For orientation: An ELISA detects its analyte on a solid surface through an enzyme-linked reagent.

Series [2] is described as follows: FIG. 9. The procedure: Table printed on a drawing sheet, FIG. 9
The patent's description of the figure: FIG. 9. In vitro metabolic stability in blood.
First reader's note: Each column is one agent and each row gives its half-life in blood of one species at 37 °C; the test concentration is printed in the row label, or in the cells for human.

Series [3] concerns CD4+ T cells. The series can be described thus: Dendritic Cell-T cell (DC-T) proliferation assay (ProImmune). To be noted: 22 donors; Percentage Stimulation above Background ≥0.5%, SEM=2; peptides 0.34 μM. The text has this: A panel of peripheral blood mononuclear cell (PBMC) samples from healthy human donors was selected from the ProImmune Ltd (UK) cell bank. Each PBMC sample was HLA (Human Leukocyte Antigen)-typed and stored in liquid nitrogen (vapor-phase) prior to use. The panel was selected so that HLA class II alleles known to be highly expressed in the global population were well represented (data not shown). Donors were predominantly selected by DRB1 allele expression.
A Dendritic Cell-T cell (DC-T) proliferation assay (ProImmune Ltd) was used to identify the presence or potential T cell epitopes within the peptides. Adherent donor PBMCs were cultured with appropriate growth factors to generate monocyte-derived DCs. DCs were then loaded with a control (control 1 and control 2), the peptide (Agent 1, Agent 2, and Agent 3, see FIG. 8A) or left untreated. The peptides were loaded at a final concentration of 0.34 μM.
Mature antigen-loaded DCs were then co-cultured at a fixed ratio with autologous CFSE-labelled T cells in multi-well plates. Each test condition was set up in eight replicate wells and cells were incubated for 7 days. At the end of the incubation period, cell samples were stained with anti-CD4 antibody, then washed and fixed for by flow cytometric analysis. Proliferation was determined by measuring a decrease in CFSE intensity.
Data were compiled to determine antigen-induced proliferation per individual donor, calculated as Percentage Stimulation above Background. The frequency of positive donor cell responses (Percentage Antigenicity) was calculated as the proportion of responding donors out of total donors. Values were then standardized against the strength of response (an average of the Percentage Stimulation value obtained across accepted donors for each protein) to give a response index (RI).
Data obtained by flow cytometric evaluation of cell samples was analyzed using FlowJo Software (Tree Star, Inc.). The number of CFSE-dim (i.e., proliferating) cells was determined for each sample in eight replicate wells. Counts for the CD4^+ CFSE dim population in each sample were expressed as a proportion of the total CD4^+ population. The eight replicate values were then used to calculate Percentage Stimulation above Background (proportion of CD4^+ CFSE dim cells with antigen stimulation minus the proportion of CD4^+ CFSE dim cells without antigen stimulation).
Background threshold values are based on data from unstimulated cells for which a maximum acceptable resting proliferation threshold is established.
In evaluating antigenicity, it is also appropriate to take account of the frequency of donor cell responses across the study cohort. A positive response (Percentage Stimulation above Background ≥0.5%) in 2 or more independent donor samples is considered indicative of a potential T cell epitope.
Depending on the size of the study, (20, 40 or 50 donors), two responding donors sets a threshold of 10%, 5% or 4% respectively. Thus, following calculation of Percentage Stimulation above Background, the frequency of positive donor cell responses (Percentage Antigenicity) is expressed as the proportion of responding donors out of total accepted donors screened.
When calculating the antigenicity of a protein it is important to consider the strength of a response as well as the frequency of that response. This is because some binding responses may be pan-allele, but these responses may not be very strong. The strength of positive donor cell responses was determined by taking an average of the percentage stimulation value obtained across accepted donors for each protein. Determining a Response Index (RI) through the multiplication of strength and frequency values is more representative of the level of antigenicity.

Series [4] is described as follows: FIG. 10C. The procedure: Table printed on a drawing sheet, FIG. 10C
(§1) The patent's description of the figure: FIGS. 10A-10C. Pharmacokinetic profile and parameter for peptides after intravenous administration. FIG. 10A) Mouse PK data (10 mg/kg, bolus IV, n=3 per timepoint). FIG. 10B) Rat PK data (10 mg/kg, bolus IV, n=3 per timepoint). FIG. 10C) Non-human primate (NHP) PK data (4 mg/kg, 30 min IV infusion, n=3). Error bars represent the standard deviation (SD).
First reader's note: The species NHP stands in the head column of row 2, and the plot legend on the same sheet gives the dosing as 4 mg/kg (30-min IV) for both agents.

Series [5] can be described thus: FIG. 10B. The procedure:
Table printed on a drawing sheet, FIG. 10B
as §1
First reader's note: Rat PK parameters; the plot legend on the same sheet gives 10 mg/kg (IV) for both agents, and the top-left cell 'PK parameters / rat' spans the first two rows.

Series [6] can be described thus: FIG. 10A. The procedure:
Table printed on a drawing sheet, FIG. 10A
as §1
First reader's note: Mouse PK parameters; the legend of the plot on the same sheet gives 10 mg/kg (IV) for both agents.

For the compound `Nc1nc2c(ncn2[C@@H]2O[C@@H]3COP(=O)(O)O[C@H]4[C@@H](O)[C@H](n5cnc6c(N)ncnc65)O[C@@H]4COP(=O)(O)O[C@@H]2[C@@H]3O)c(=O)[nH]1` [2′3′-cGAMP, cyclic 2′3′ GMP-AMP], the “EC50 of cGAMP for IFN expression” value in series [1] was “around 20 μg/mL”.

In the case of `CC[C@H](C)[C@H](NC(=O)[C@H](CC(N)=O)NC(=O)[C@H](CCCCN)NC(=O)[C@H](C)NC(=O)[C@H](CCCCN)NC(=O)[C@H](CCCCN)NC(=O)COCCOCCNC(=O)COCCOCCNC(=O)CCCCCCCCCCCCCCC(=O)O)C(=O)N[C@H](C(=O)N[C@@H](CC(C)C)C(=O)N[C@@H](CC(C)C)C(=O)N[C@@H](CCCCN)C(=O)NCC(=O)N[C@@H](CC(C)C)C(=O)N[C@@H](CCC(=O)O)C(=O)N[C@H](C(=O)N[C@H](C(=O)N[C@@H](CC(N)=O)C(=O)N[C@@H](CC(=O)O)C(=O)N[C@@H](Cc1c[nH]c2ccccc12)C(=O)N[C@@H](Cc1c[nH]cn1)C(=O)N[C@@H](Cc1ccccc1)C(=O)N[C@H]1CSSC[C@@H](C(N)=O)NC(=O)[C@@H](CCCNC(=N)N)NC(=O)[C@H](CCCNC(=N)N)NC(=O)[C@@H](CCCCN)NC(=O)[C@H](CCCCN)NC(=O)[C@@H](CCCNC(=N)N)NC(=O)CNC(=O)[C@@H](CCCNC(=N)N)NC(=O)[C@H](CCCNC(=N)N)NC(=O)[C@@H](CCCNC(=N)N)NC1=O)[C@@H](C)CC)C(C)C)C(C)C` [Agent 1 T½ (min)] ({C16 diacid-AEEA-AEEA}-KKAKNIVLLKGLEVINDWHFC[dR]R[dR]G[dR]K[dK]R[dR]C-NH2; disulfide 21-31), in series [2], the “Mouse (@ 5.0 µg/mL)” value was 174 min, the “NHP (@ 4.4 µg/mL)” value is 172 min and the “Rat (@ 5.0 µg/mL)” value is 86 min.

On to `CC[C@H](C)[C@H](NC(=O)[C@H](CC(N)=O)NC(=O)[C@H](CCCCN)NC(=O)[C@H](C)NC(=O)[C@H](CCCCN)NC(=O)[C@@H](N)CCCCN)C(=O)N[C@H](C(=O)N[C@@H](CC(C)C)C(=O)N[C@@H](CC(C)C)C(=O)N[C@@H](CCCCN)C(=O)NCC(=O)N[C@@H](CC(C)C)C(=O)N[C@@H](CCC(=O)O)C(=O)N[C@H](C(=O)N[C@H](C(=O)N[C@@H](CC(N)=O)C(=O)N[C@@H](CC(=O)O)C(=O)N[C@@H](Cc1c[nH]c2ccccc12)C(=O)N[C@@H](Cc1c[nH]cn1)C(=O)N[C@@H](Cc1ccccc1)C(=O)N[C@H]1CSSC[C@@H](C(N)=O)NC(=O)[C@@H](CCCNC(=N)N)NC(=O)[C@H](CCCNC(=N)N)NC(=O)[C@@H](CCCCN)NC(=O)[C@H](CCCCN)NC(=O)[C@@H](CCCNC(=N)N)NC(=O)CNC(=O)[C@@H](CCCNC(=N)N)NC(=O)[C@H](CCCNC(=N)N)NC(=O)[C@@H](CCCNC(=N)N)NC1=O)[C@@H](C)CC)C(C)C)C(C)C` [Agent 3] (H-KKAKNIVLLKGLEVINDWHFC[dR]R[dR]G[dR]K[dK]R[dR]C-NH2; disulfide 21-31; N-terminus assumed), for which, in series [3], the “Response Index (RI)” value stood at 0.306 and the percentage antigenicity is given as 22.73%.

For “KKYKNIVLLKGLEVINDYHFGRKKRRQRRRPQ-NH2 [Agent 2 T½ (min)]”, in series [2], the “Mouse (@ 5.0 µg/mL)” value amounted to 4 min and the “Rat (@ 5.0 µg/mL)” value came out at 3 min.

“KKYKNIVLLKGLEVINDYHFGRKKRRQRRRPQ-NH2 [Agent 2, reference compound]”: in series [3], the “Response Index (RI)” value came out at 0.445 and the percentage antigenicity was found to be 31.82%.

For the compound “KKYKNIVLLKGLEVINDYHFGRKKRRQRRRPQ-NH2 [Agent 2]”, in series [4], the “AUC0-inf (ng·h/mL)” value is recorded as 1,250 ng·h/mL. The “C0 (ng/mL)” value in series [4] is reported as 2,760 ng/mL. For the same compound, the “Clobs” value in series [4] turned out to be 53.8 mL/min/kg; in series [5] it was 742 mL/min/kg; in series [6], 447 mL/min/kg. Further, the “AUC0-inf” value in series [5] amounted to 225 ng·h/mL; in series [6], 373 ng·h/mL. Also, the C0 was 1730 ng/mL in series [5] (rat, in vivo, iv, 10 mg/kg) and 3910 ng/mL in series [6] (mouse, in vivo, iv, 10 mg/kg).
